The values that follow come from US20080064679A1, “Water Soluble Cannabinoids” (priority 2004, published 2008).

“And” between values parts separate entries of the source, which are not always exact repeats. Equal entries are not always repeated. Where two headings read alike, the source gives them in different places. Bounds are passed on as bounds.

The test system of assay [1] is mice. The assay can be described thus: Spontaneous activity (S.A.), mouse tetrad. The format is in vivo. The settings on record: for ED50: Mus musculus.
Assay [2] concerns the target T1, human CB2 receptor (Homo sapiens, UniProt P34972).
T1 construct: expressed in transfected cells; b94 says HEK for CB2
The assay can be described thus: CB2 receptor binding, [3H]CP55,940 displacement in membranes of transfected cells. The settings on record: mean±SEM, read-out: CB2 Ki. How it is done: cLogP calculations. Absolute solubility determinations were not performed. Rather, cLogP calculations were performed using the CS ChemDraw Ultra software (Cambridge Soft Corporation, Cambridge, Mass.). Receptor Binding. HEK-293 cells stably expressing the human CB1 receptor were cultured in DMEM with 10% FBS and Chinese Hamster Ovary (CHO) cells stably expressing the human CB2 receptor were cultured in DMEM with 10% FCS. Cells were harvested by replacement of the media with cold phosphate-buffered saline containing 1 mM EDTA followed by centrifugation at 1000×g for 5 min at 4° C. The pellet was resuspended in 50 mM Tris-HCl containing 320 mM sucrose, 2 mM EDTA and 5 mM MgCl2 (pH 7.4) (centrifugation buffer), then centrifuged at 1000×g for 10 min at 4° C., and the resulting supernatant was saved. This process was repeated twice. The supernatant fractions were combined and centrifuged at 40,000×g for 30 min at 4° C. The resulting P2 pellet was resuspended in assay buffer (50 mM Tris-HCl (pH 7.4), 3 mM MgCl2, 0.2 mM EGTA, and 100 mM NaCl) and protein was determined by the method of Bradford ENRfu(Bradford 1976). Membranes were stored at −80° C. until use. […] The assay was incubated at 30° C. for 1 hr and terminated by addition of ice cold 50 mM Tris-HCl plus BSA (1 mg/ml) (pH 7.4) followed by filtration under vacuum through Whatman GF/B glass fiber filters with 3 washes with cold Tris buffer. Bound radioactivity was determined by liquid scintillation spectrophotometry at 50% efficiency after extraction by shaking samples for 30-60 min with Budget-Solve scintillation fluid. Data are reported as the mean±SEM of three experiments, each performed in triplicate. Ki values were calculated from displacement data using EBDA (Equilibrium Binding Data Analysis; BIOSOFT, Milltown, N.J.). [^35S]GTPγS Binding Assays. Concentration-effect curves were generated by incubating membranes (10 μg prepared from CB1 expressing cells as described above) in assay buffer containing BSA (1 mg/ml) with various concentrations of test compounds in the presence of 20 μM GDP and 0.1 nM [^35S]GTPγS in a 1 ml total volume. […] Basal binding was assessed in the absence of agonist, and nonspecific binding was measured in the presence of 10 μM GTPγS. The reaction was incubated for 90 min at 30° C. and terminated by filtration under vacuum through Whatman GF/B glass fiber filters with 3 washes with cold (4° C.) Tris buffer (50 mM Tris-HCl, pH 7.4). Bound radioactivity was determined by liquid scintillation spectrophotometry at 95% efficiency after extraction overnight in ScintiSafe Econo 1 scintillation fluid. Data are reported as mean±SEM of three experiments, each performed in triplicate. Nonlinear regression analysis was conducted by iterative fitting using JMP (SAS for Macintosh). Net-stimulated [^35S]GTPγS binding is defined as [^35S]GTPγS binding in the presence of drug minus basal and percent stimulation is expressed as (net stimulated [^35S]GTPγS binding/basal)×100%. Behavioral Evaluations. All animals were allowed to acclimate to the observation room overnight. Behavioral effects were assessed in the tetrad model in order to measure potency in producing antinociception, catalepsy, hypothermia, and hypomobility. The baselines for tail-flick latency (2-4 seconds) and rectal temperature were determined prior to i.v. injections. Baseline rectal temperatures were measured using a telethermometer and a thermometer probe inserted to 25 mm (Yellow Springs Instrument Co., Yellow Springs, Ohio). The mice were then given either an i.v. i.c.v. injection of the analog. The mice were placed in individual photocell activity chambers 5 min later. Spontaneous activity was monitored for 10 min in a Digiscan Animal Activity Monitor (Omnitech Electronice, Inc., Columbus, Ohio) as measured by the number of interruptions of 16 photocell beams per chamber. The total number of beam interruptions during the 10-min period was determined and presented as total counts.

[3] abbreviates: iv, vehicle E:E:S (1:1:18), read-out: S.A. ED50 (reducing spontaneous activity).
Where [4] appears, read: iv, vehicle saline, read-out: S.A. ED50 (reducing spontaneous activity).
[5] abbreviates: iv, figure legends, i.v., vehicle 1:1:18 ethanol:emulphor:saline, read-out: ED50 after i.v. administration, spontaneous activity.

T1 sequence (P34972 whole entry): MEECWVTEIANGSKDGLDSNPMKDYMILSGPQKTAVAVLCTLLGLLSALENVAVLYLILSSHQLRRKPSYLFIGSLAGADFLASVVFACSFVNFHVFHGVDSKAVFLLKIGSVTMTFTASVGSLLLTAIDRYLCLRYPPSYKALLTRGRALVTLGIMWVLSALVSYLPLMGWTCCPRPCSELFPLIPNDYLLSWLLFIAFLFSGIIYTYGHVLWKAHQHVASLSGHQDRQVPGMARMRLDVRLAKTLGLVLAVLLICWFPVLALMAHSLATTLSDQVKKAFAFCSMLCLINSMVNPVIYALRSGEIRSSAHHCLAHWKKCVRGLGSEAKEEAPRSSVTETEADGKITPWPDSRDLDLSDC

On to “1-(2-methyl-4-N-piperidinobutyryloxy) [O-2374]”, for which, in assay [1] (i.v., vehicle saline), the “S.A. ED50 (reducing spontaneous activity)” value came to 0.18 µmol/kg. Besides, in assay [2] (Tables 2b, 3b, 4a), the Ki (usually a dissociation constant, usually derived from enzyme kinetics or from competition with a known ligand) is 1.1 ± 0.1 nM.
For the compound `CC1=CC[C@@H]2[C@@H](C1)c1c(O)cc(C(C)(C)CCCCC(N)=O)cc1OC2(C)C` [O-2352, Carboxamido], the ED50 in assay [1] (setting [3]) was 0.16 µmol/kg. Further, in assay [2] (Table 1B), the Ki stood at 0.84 ± 0.05 nM.
As to `CC1=CC[C@@H]2[C@@H](C1)c1c(O)cc(C(C)(C)CCCCC(=O)N3CCOCC3)cc1OC2(C)C` [O-2372, Morpholino-carboxamido], in assay [1] (setting [3]), the ED50 was determined as 0.01 µmol/kg. In addition, the Ki in assay [2] (Table 1B) stood at 0.57 ± 0.04 nM.
Turning to `CC1=CC[C@@H]2[C@@H](C1)c1c(O)cc(C(C)(C)CCCCC(=O)N3CCCCC3)cc1OC2(C)C` [O-2373, Piperidino-carboxamido], the ED50 in assay [1] (setting [3]) is 0.02 µmol/kg. In assay [2] (Table 1B), the Ki amounted to 0.96 ± 0.01 nM.
The corresponding values for `CC1=CC[C@@H]2[C@@H](C1)c1c(O)cc(C(C)(C)CCCCC(=O)N3CCN(C)CC3)cc1OC2(C)C` [O-2381, Methylepiperazino-carboxamido] are 21.4 µmol/kg and 389 ± 46 nM.
Turning to `CC1=CC[C@@H]2[C@@H](C1)c1c(O)cc(C(C)(C)CCCCC(=O)N3CCCC3)cc1OC2(C)C` [O-2399, Pyrrolidino-carboxamido], the ED50 in assay [1] (setting [3]) was 0.03 µmol/kg. The Ki in assay [2] (Table 1B) came to 2.86 ± 0.68 nM.
Turning to `CC1=CC[C@@H]2[C@@H](C1)c1c(O)cc(C(C)(C)CCCCC(=O)N3CCCCCC3)cc1OC2(C)C` [O-2421, Homopiperidino-carboxamido], the ED50 in assay [1] (setting [3]) came out at 0.15 µmol/kg. The Ki in assay [2] (Table 1B) is 3.45 ± 0.58 nM.
For the compound `CC1=CC[C@@H]2[C@@H](C1)c1c(O)cc(C(C)(C)CCCCC(=O)NN3CCCCCC3)cc1OC2(C)C` [O-2489, N-(Homo-piperidin-1-yl)-carboxamido], the ED50 in assay [1] (setting [3]) worked out at 2.07 µmol/kg. Moreover, in assay [2] (Table 1B), the Ki amounted to 35.3 ± 4.48 nM.
Consider `CNC(=O)CCCCC(C)(C)c1cc(O)c2c(c1)OC(C)(C)[C@@H]1CC=C(C)C[C@@H]21` [O-2490, N-(Methyl)carboxamido], for which the ED50 in assay [1] (setting [3]) was determined as 0.49 µmol/kg. Besides, in assay [2] (Table 1B), the Ki was found to be 3.16 ± 0.75 nM.
As for `CC1=CC[C@@H]2[C@@H](C1)c1c(O)cc(C(C)(C)CCCCC(=O)NN3CCCC3)cc1OC2(C)C` [O-2543, N-(Pyrrolidin-yl)-carboxamido], the ED50 in assay [1] (setting [3]) amounted to 0.71 µmol/kg. Besides, the Ki in assay [2] (Table 1B) was found to be 10.8 ± 0.08 nM.
The matching figures for `CC1=CC[C@@H]2[C@@H](C1)c1c(O)cc(C(C)(C)CCCCC(=O)NN3CCOCC3)cc1OC2(C)C` [O-2544, N-(Morpholin-1-yl)-carboxamido]: 0.17 µmol/kg and 11.4 ± 0.91 nM.
In the case of `CC1=CC[C@@H]2[C@@H](C1)c1c(O)cc(C(C)(C)CCCCn3ccnc3)cc1OC2(C)C` [O-2545, Imidazol-1-yl], the ED50 amounted to 0.09 µmol/kg in assay [1] (iv, figure legends, i.v., saline, read-out: ED50 after i.v. administration, spontaneous activity); 0.01 µmol/kg in assay [1] (setting [3]); 0.09 µmol/kg in assay [1] (setting [4]). Besides, the Ki in assay [2] (Tables 2b, 3b, 4a) is 0.12 nM and 0.32 nM.
Regarding `CC1=CC[C@@H]2[C@@H](C1)c1c(O)cc(C(C)(C)CCCCn3ccnc3C)cc1OC2(C)C` [O-2651, 2-Methyl-imidazol-1-y1], the ED50 in assay [1] (setting [4]) amounted to 1.46 µmol/kg. The Ki in assay [2] (Tables 2b, 3b, 4a) came to 1.22 ± 0.28 nM.
`CC1=CC[C@@H]2C(C1)c1c(OC(=O)CCCN(C(C)C)C(C)C)cc(C(C)(C)CCCCC(=O)N3CCOCC3)cc1OC2(C)C` (stereo partly drawn) [O-2694, Diisopropylaminobutyrate of Δ^8-THC-3-(1,1-dimethyl-6-morpholin-4-yl-6-oxo-hexyl)]: the ED50 in assay [1] (Table 4b, vehicle not indicated, read-out: S.A. ED50 (reducing spontaneous activity)) was determined as 0.045 µmol/kg. Also, in assay [2] (Tables 2b, 3b, 4a), the Ki is 2.77 ± 0.44 nM.
In the case of `CC1=CC[C@@H]2[C@@H](C1)c1c(O)cc(C(C)(C)CCCCn3cccn3)cc1OC2(C)C` [O-2715, Pyrazol-1-yl], the ED50 in assay [1] (setting [5]) and in assay [1] (setting [3]) was 0.004 µmol/kg each time. Also, in assay [2] (Tables 2b, 3b, 4a), the Ki amounted to 1.52 ± 0.31 nM.
For `CC1=CC[C@@H]2[C@@H](C1)c1c(O)cc(C(C)(C)CCCCn3cncn3)cc1OC2(C)C` [O-2716, 1,2,4-Triazol-1-yl], the ED50 in assay [1] (setting [5]) and in assay [1] (setting [3]) was 0.03 µmol/kg throughout. Moreover, in assay [2] (Tables 2b, 3b, 4a), the Ki was 0.92 ± 0.07 nM.
On to `CC1=CC[C@@H]2[C@@H](C1)c1c(O)cc(C(C)(C)CCCCc3ncc[nH]3)cc1OC2(C)C` [O-2737, 1H-Imidazol-2-yl], for which the ED50 is greater than 24.5 µmol/kg in assay [1] (setting [3]) and greater than 2.2 µmol/kg in assay [1] (setting [4]). Moreover, in assay [2] (Tables 2b, 3b, 4a), the Ki is 14.8 ± 1.14 nM.
